{"source": "patent US20250228851A1", "about": "“ALLOSTERIC INHIBITOR COMPOUNDS FOR OVERCOMING CANCER RESISTANCE” (priority 2021, published 2025)", "key": {"[1]": {"test_system": "Ba/F3 cells expressing T315I-p185-BCR-ABL", "experiment": "XTT cell viability / proliferation, Ba/F3 expressing T315I-p185-BCR-ABL", "assay_type": "cell-based, murine", "method": "(§1) • 1. Ba/F3 cells were obtained from the German Collection of Microorganisms and Cell Cultures (DSMZ, Braunschweig, Germany) and maintained in RPMI 1640 medium supplemented with 10% fetal calf serum (Invitrogen) containing 10 ng/ml of interleukin-3 (Cell Concepts, Umkirch, Germany). Ecotropic Phoenix cells and Rat-1 cells were cultured in Dulbecco's modified Eagle's medium supplemented with 10% fetal calf serum. GNF-2 (Sigma-Adrich, Steinheim, Germany) was dissolved in dimethyl sulfoxide and added at a final concentration of […]. Cell growth was assessed by dye exclusion using Trypan blue. Proliferation was assessed using the XTT proliferation kit (Roche, Mannheim, Germany), according to the manufacturer's instructions. • 2. Ba/F3: IL-3 dependent lymphatic murine pro B cell line. Ba/F3 cells expressing either p185-BCR-ABL1 (p185-BCR-ABL-Ba/F3) or p210-BCR-ABL (p210-BCR-ABL-Ba/F3). p185-BCR-ABL1 (activated kinases substitute for the IL-3 signaling and therefore render the cells IL3 independent. Ba/F3 cells expressing either p185-BCR-ABL (p185-Ba/F3) or p210-BCR-ABL (p210-Ba/F3). Ba/F3 cells obtained from the German Collection of Microorganisms and Cell Cultures (DSMZ, Braunschweig, Germany). • 3. Mutant transduced Ba/F3 cells (T315I-p185-BCR-ABL1 or T315I-p210-BCR-ABL1): Ba/F3 cells expressing either the mutated forms T315I-p185-BCR-ABL1 or T315I-p210-BCR-ABL1. • 4. WT-Sup-B15: A Ph+ ALL cell line harboring the p185-BCR-ABL. Sup-B15: established from the bone marrow of a child with acute lymphoblastic leukemia (B cell precursor ALL) in second relapse in 1984; described in the literature to carry the ALL-variant (m-BCR) of the BCR-ABL1 fusion gene (e1-a2) correct, because it results in the p185-BCR-ABL version. • 5. […] V617FJAK2 HEL: (Human erythroleukemia) is a growth factor independent erythroleukemic cell line established from the bone marrow of a patient with relapsed Hodgkin disease after autologous bone marrow transplantation (Martin P & Papayannopoulou T: Science 1982; 216:1233-1235). HEL cells display a block in differentiation at the level of common erythroid-megakaryocytic progenitor and have been commonly used as a model to study erythroid and megakaryocytic differentiation. • 7. Jurkat: an immortalized human T lymphocyte first derived from the peripheral blood of a child suffering from T cell leukemia. Jurkat cells are used to study acute T cell leukemia, T cell signaling, and the expression of various chemokine receptors susceptible to viral entry, particularly HIV.\nFIGS. 1A and 1B: Effects of Compound 16 on Ba/F3 cells expressing either p185-BCR-ABL or T315I-p185-BCR-ABL. Cells were exposed to increasing concentration of Compound 16 [empty vehicle (0.0 μM+IL3), 2.5, 5.0 and 10.0 μM]. […] Cell viability (CV) was assessed using the XTT method as described in the experimental part. The means±SD of triplicates from one representative experiment out of three performed are given.\nFIGS. 7A-C: Effects of Compound 16 on of Ba/F3 cells expressing WT-p185-BCR-ABL (FIG. 7A) and the mutant gatekeeper T315I-p185-BCR-ABL (FIG. 7B) by Compound 16. Cells were exposed to increasing concentrations of Compound 16."}, "Jurkat": {"test_system": "Jurkat", "experiment": "XTT cell viability, Jurkat", "assay_type": "cell-based, human", "conditions": "increasing concentration up to 10 μM", "method": "• 1. Ba/F3 cells were obtained from the German Collection of Microorganisms and Cell Cultures (DSMZ, Braunschweig, Germany) and maintained in RPMI 1640 medium supplemented with 10% fetal calf serum (Invitrogen) containing 10 ng/ml of interleukin-3 (Cell Concepts, Umkirch, Germany). Ecotropic Phoenix cells and Rat-1 cells were cultured in Dulbecco's modified Eagle's medium supplemented with 10% fetal calf serum. GNF-2 (Sigma-Adrich, Steinheim, Germany) was dissolved in dimethyl sulfoxide and added at a final concentration of […]. Cell growth was assessed by dye exclusion using Trypan blue. Proliferation was assessed using the XTT proliferation kit (Roche, Mannheim, Germany), according to the manufacturer's instructions. • 2. Ba/F3: IL-3 dependent lymphatic murine pro B cell line. Ba/F3 cells expressing either p185-BCR-ABL1 (p185-BCR-ABL-Ba/F3) or p210-BCR-ABL (p210-BCR-ABL-Ba/F3). p185-BCR-ABL1 (activated kinases substitute for the IL-3 signaling and therefore render the cells IL3 independent. Ba/F3 cells expressing either p185-BCR-ABL (p185-Ba/F3) or p210-BCR-ABL (p210-Ba/F3). Ba/F3 cells obtained from the German Collection of Microorganisms and Cell Cultures (DSMZ, Braunschweig, Germany). • 3. Mutant transduced Ba/F3 cells (T315I-p185-BCR-ABL1 or T315I-p210-BCR-ABL1): Ba/F3 cells expressing either the mutated forms T315I-p185-BCR-ABL1 or T315I-p210-BCR-ABL1. • 4. WT-Sup-B15: A Ph+ ALL cell line harboring the p185-BCR-ABL. Sup-B15: established from the bone marrow of a child with acute lymphoblastic leukemia (B cell precursor ALL) in second relapse in 1984; described in the literature to carry the ALL-variant (m-BCR) of the BCR-ABL1 fusion gene (e1-a2) correct, because it results in the p185-BCR-ABL version. • 5. […]\nFIG. 2: Effect of Compound 16 on leukemia cell lines (Jurkat, Sup-B15 and BV173). Cell viablility (CV) was determined following incubation of the 1 m cells/ml of each cell line with increasing concentration of the Compound 16 [empty vehicle (0.0 μM+IL3), 2.5, 5.0 and 10.0 μM]. CV was measured by the XTT method. […]"}, "Sup-B15 (p185-BCR-ABL)": {"test_system": "Sup-B15 (p185-BCR-ABL)", "experiment": "XTT cell viability, Sup-B15 (WT-Sup-B15)", "assay_type": "cell-based, human", "method": "as §1\nFIG. 2: Effect of Compound 16 on leukemia cell lines (Jurkat, Sup-B15 and BV173). Cell viablility (CV) was determined following incubation of the 1 m cells/ml of each cell line with increasing concentration of the Compound 16 [empty vehicle (0.0 μM+IL3), 2.5, 5.0 and 10.0 μM]. CV was measured by the XTT method. The means±SD of triplicates from one representative experiment out of three performed are given."}, "[2]": {"test_system": "PH (Ph+ AKI sensitive culture)", "experiment": "Proliferation by dye exclusion after three days, PH", "assay_type": "cell-based, human", "method": "(§2) FIG. 3. […] Cells were exposed to increasing concentration of 2.5, 5 and 10 μM of Compound 16. The negative control cell lines Ph− ALL HP was irresponsive to increasing concentration of Compound 16 (up to 10 μM). […] All four cell lines were plated in duplicates at the indicated concentrations, and proliferation was assessed after three days by dye exclusion of viable cells. […] The sensitivity of Ph+ cells to Compound 16 underlines the involvement of BCR-ABL in the antiproliferative mechanism. Death induction of BV173 cells is well taken as an indication of the ability of such group of compounds to overcome resistance that is originated in non-mutational grounds. However, the ability overcome the resistant T315I-BCR-ABL mutant, as shown in the dose-dependent manner of KÖ (circles), might be indicative for a non-ATP competitive mechanism of action."}, "BV173": {"test_system": "BV173", "experiment": "Proliferation by dye exclusion after three days, BV173", "assay_type": "cell-based, human", "method": "as §2"}, "KÖ (Ph+T315I-BCR-ABL)": {"test_system": "KÖ (Ph+T315I-BCR-ABL)", "experiment": "Proliferation by dye exclusion after three days, KÖ", "assay_type": "cell-based, human", "conditions": "KÖ, 2.5, 5 and 10 μM", "method": "as §2"}, "WT-Ba/F3": {"test_system": "WT-Ba/F3", "experiment": "Proliferation by trypan blue exclusion, WT-Ba/F3", "assay_type": "cell-based, murine", "conditions": "WT-Ba/F3, 1.0, 2.0 and 5.0 μM", "method": "• 1. Ba/F3 cells were obtained from the German Collection of Microorganisms and Cell Cultures (DSMZ, Braunschweig, Germany) and maintained in RPMI 1640 medium supplemented with 10% fetal calf serum (Invitrogen) containing 10 ng/ml of interleukin-3 (Cell Concepts, Umkirch, Germany). Ecotropic Phoenix cells and Rat-1 cells were cultured in Dulbecco's modified Eagle's medium supplemented with 10% fetal calf serum. GNF-2 (Sigma-Adrich, Steinheim, Germany) was dissolved in dimethyl sulfoxide and added at a final concentration of […]. Cell growth was assessed by dye exclusion using Trypan blue. Proliferation was assessed using the XTT proliferation kit (Roche, Mannheim, Germany), according to the manufacturer's instructions. • 2. Ba/F3: IL-3 dependent lymphatic murine pro B cell line. […]\nFIGS. 4A and 4B. […] All cell lines were treated with the indicated concentrations of Compound 16 for total period of five days and proliferation was determined by trypan blue exclusion of viable cells. […] For factor-independent growth, the number of viable cells was determined at day 3 by trypan blue dye exclusion."}}, "note": "Entries after “also recorded” stand apart in the source; their conditions may differ."}
{"molecule": "COc1ccc(C(=O)N2CCN(c3cc(Nc4ccc(OC(F)(F)F)cc4)ncn3)CC2)cc1OC", "note": "[Compound 16]", "values": [{"measurement": "RF (T315I-p185 versus p185-Ba/F3)", "setting": "[1]; 1 μM, 48 hr", "result": 1.07}, {"measurement": "cells inhibited", "setting": "[1]; 1 μM, within the first 24 hours", "result": "not affected"}, {"measurement": "resistance conferred by T315I mutant versus p185-Ba/F3", "setting": "[1]; 2 μM, T=48 hr", "result": 1.84, "unit": "fold"}, {"measurement": "viable cells", "setting": "[1]; 2 μM, T=48 hr", "result": 50.71, "unit": "%"}, {"measurement": "time to complete inhibition", "setting": "[1]; 10 μM", "result": "~96", "unit": "h"}, {"measurement": "cell proliferation affected", "setting": "[1]; 5 and 10 μM", "result": "~80", "unit": "%"}, {"measurement": "antiproliferative response (in words)", "setting": "Jurkat", "result": "highly insensitive; also recorded: irresponsive"}, {"measurement": "cells inhibited", "setting": "Sup-B15 (p185-BCR-ABL); 10 μM", "result": "around 69%"}, {"measurement": "IC50", "setting": "Sup-B15 (p185-BCR-ABL); Sup-B15, XTT, estimated", "result": "~4500", "unit": "nM"}, {"measurement": "antiproliferative response (in words)", "setting": "Sup-B15 (p185-BCR-ABL); Sup-B15 / WT-Sup-B15, increasing concentration up to 10 μM", "result": "potently inhibited the proliferation"}, {"measurement": "IC50", "setting": "[2]", "result": "~2100", "unit": "nM"}, {"measurement": "IC50", "setting": "BV173", "result": 2500, "unit": "nM"}, {"measurement": "response (in words)", "setting": "KÖ (Ph+T315I-BCR-ABL)", "result": "inhibited with variable degrees"}, {"measurement": "effect on proliferation (in words)", "setting": "WT-Ba/F3", "result": "without affecting the proliferation"}]}
